Data set [1] is described as follows: Drug metabolism in human liver cytosol assessed as metabolite formation by HPLC-RA analysis. Format: ADME, tissue-based.
The target in a further data set is Cytochrome P450 2C9 (Homo sapiens, UniProt P11712). Description: Activity at human recombinant CYP2C9 expressed in baculovirus-infected BTI-TN-5B1-4 insect cell microsomes assessed as metabolite formation at 5 to 100 uM after 30 mins by HPLC-RA analysis. The format is ADME. As to conditions: bti-tn-5b1-4, 0.5 h.
The next data set has as its target Cytochrome P450 4F3 (Homo sapiens, UniProt Q08477). Description: Activity at human recombinant CYP4F3A expressed in baculovirus-infected BTI-TN-5B1-4 insect cell microsomes assessed as metabolite formation at 5 to 100 µM after 30 mins by HPLC-RA analysis. The format is ADME. The conditions noted are these: bti-tn-5b1-4, 0.5 h.
For data set [2], the system named is Liver microsome. Kind of data set: Drug metabolism in human liver microsomes assessed as total metabolite formation at 1 uM after 20 mins by HPLC-RA analysis in presence of 10 uM CYP3A4 inhibitor ketoconazole. Format: ADME. For orientation: Liver microsomes are vesicles of endoplasmic reticulum, rich in cytochrome P450 enzymes.
Data set [3] has as its system Liver microsome. Kind of data set: Drug metabolism in human liver microsomes assessed as total metabolite formation at 1 to 50 uM after 20 mins by HPLC-RA analysis in presence of CYP2C8 inhibitor paclitaxel. Format: ADME.

Sequence of Cytochrome P450 4F3 (Q08477 whole entry): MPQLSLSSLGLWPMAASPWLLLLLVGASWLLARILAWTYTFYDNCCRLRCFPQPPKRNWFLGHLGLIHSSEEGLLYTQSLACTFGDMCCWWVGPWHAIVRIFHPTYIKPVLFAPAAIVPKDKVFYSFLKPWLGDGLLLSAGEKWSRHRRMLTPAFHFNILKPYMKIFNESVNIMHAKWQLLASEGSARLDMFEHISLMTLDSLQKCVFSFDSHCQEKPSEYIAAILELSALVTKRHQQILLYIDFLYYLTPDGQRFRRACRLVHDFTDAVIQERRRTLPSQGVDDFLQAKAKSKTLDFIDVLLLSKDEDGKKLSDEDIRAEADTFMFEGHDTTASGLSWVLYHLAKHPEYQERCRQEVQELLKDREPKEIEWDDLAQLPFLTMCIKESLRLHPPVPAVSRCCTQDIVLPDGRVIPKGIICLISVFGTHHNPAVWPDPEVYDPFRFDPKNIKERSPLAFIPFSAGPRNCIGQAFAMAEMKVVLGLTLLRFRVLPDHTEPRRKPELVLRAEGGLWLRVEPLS
Sequence of Cytochrome P450 2C9 (P11712 whole entry): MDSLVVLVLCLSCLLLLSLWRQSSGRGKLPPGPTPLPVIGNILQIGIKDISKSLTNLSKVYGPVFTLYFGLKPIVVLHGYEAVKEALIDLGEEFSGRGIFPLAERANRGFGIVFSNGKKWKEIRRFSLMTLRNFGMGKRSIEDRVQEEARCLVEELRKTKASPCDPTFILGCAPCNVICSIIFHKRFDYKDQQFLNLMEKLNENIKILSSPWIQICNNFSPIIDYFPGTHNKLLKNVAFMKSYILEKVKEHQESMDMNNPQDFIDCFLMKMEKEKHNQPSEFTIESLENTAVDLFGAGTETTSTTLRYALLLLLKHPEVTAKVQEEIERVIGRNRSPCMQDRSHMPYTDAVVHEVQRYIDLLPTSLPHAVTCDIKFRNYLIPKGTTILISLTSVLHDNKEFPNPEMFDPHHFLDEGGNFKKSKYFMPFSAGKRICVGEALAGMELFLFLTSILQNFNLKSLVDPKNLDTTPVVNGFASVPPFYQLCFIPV

`CCCCCCCCc1ccc(CC[14C](N)(CO)CO)cc1.Cl`: the Drug metabolism result was “metabolite_not_detected” in data set [1]; “metabolite_not_detected” at Cytochrome P450 2C9; “metabolite_not_detected” at Cytochrome P450 4F3; “metabolite_not_detected” in the data set on Liver microsome [2]; “metabolite_detected” in the data set on Liver microsome [3].
